Source: publication PMC5343058 (The Korean Journal of Physiology & Pharmacology : Official …, 2017)

Biological target: T1, hSlo3+hLRRC52 (Homo sapiens, UniProt A8MYU2)
T1 sequence (A8MYU2 1-1149): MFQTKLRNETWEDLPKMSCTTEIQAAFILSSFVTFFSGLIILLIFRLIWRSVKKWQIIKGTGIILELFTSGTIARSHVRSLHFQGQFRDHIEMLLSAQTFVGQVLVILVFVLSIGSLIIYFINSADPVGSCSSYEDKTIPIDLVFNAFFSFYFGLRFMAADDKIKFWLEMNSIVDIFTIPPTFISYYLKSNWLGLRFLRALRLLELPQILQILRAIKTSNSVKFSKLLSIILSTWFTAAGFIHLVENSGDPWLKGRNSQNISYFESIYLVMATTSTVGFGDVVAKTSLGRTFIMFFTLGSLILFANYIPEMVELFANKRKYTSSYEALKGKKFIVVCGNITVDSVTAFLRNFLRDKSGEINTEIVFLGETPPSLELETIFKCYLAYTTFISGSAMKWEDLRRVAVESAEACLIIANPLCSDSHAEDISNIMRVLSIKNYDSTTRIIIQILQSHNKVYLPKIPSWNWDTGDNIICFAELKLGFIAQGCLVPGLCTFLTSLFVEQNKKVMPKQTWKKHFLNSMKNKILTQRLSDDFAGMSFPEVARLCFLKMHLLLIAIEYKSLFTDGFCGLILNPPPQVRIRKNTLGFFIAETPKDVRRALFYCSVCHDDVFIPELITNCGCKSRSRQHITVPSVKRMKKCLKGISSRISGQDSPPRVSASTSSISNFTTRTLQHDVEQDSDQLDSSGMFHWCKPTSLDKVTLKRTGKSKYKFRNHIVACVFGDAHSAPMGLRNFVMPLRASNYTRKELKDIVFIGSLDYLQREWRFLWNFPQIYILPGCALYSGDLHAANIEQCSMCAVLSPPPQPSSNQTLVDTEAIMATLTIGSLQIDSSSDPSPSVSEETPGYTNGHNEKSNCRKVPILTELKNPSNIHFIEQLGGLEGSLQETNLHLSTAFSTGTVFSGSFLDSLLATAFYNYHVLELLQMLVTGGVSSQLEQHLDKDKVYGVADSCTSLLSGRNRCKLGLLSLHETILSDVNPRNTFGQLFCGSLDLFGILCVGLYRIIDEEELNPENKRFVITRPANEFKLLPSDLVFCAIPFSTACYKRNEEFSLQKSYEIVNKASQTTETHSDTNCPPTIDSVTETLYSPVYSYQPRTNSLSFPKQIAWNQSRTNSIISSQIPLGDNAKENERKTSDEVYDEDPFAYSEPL
T1 sequence (Q8N7C0 24-313 partner): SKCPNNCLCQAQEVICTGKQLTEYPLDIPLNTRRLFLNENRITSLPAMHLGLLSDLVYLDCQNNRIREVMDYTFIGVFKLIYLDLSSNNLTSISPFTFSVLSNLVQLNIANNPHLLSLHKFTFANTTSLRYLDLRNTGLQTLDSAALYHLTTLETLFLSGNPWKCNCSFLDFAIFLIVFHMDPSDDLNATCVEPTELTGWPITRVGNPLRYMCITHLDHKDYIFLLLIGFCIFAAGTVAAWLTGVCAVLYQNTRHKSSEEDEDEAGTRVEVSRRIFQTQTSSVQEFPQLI
Assay: whole-cell patch clamp, HEK293, voltage ramp
Format: cell-based
Details: HEK293, read-out: % inhibition at 20 mM

inhibition at 20000 µM: 41 ± 5.19%
Compound: CC[N+](CC)(CC)CC [TEA]
